The target in the experiment is T1, MOR receptors (Homo sapiens, UniProt P35372).
T1 construct: expressed in transfected cells; host or cells: CHO cells
Briefly: cell-based. It counts as cell-based. The note with it: CHO cells stably expressing MOR/Gα16; calcium flux caused by known agonist DAMGO; fluorescence at 525 nm.

In general, IC50 refers to the point on the concentration scale where inhibition reaches its midpoint.

T1 sequence (P35372 whole entry): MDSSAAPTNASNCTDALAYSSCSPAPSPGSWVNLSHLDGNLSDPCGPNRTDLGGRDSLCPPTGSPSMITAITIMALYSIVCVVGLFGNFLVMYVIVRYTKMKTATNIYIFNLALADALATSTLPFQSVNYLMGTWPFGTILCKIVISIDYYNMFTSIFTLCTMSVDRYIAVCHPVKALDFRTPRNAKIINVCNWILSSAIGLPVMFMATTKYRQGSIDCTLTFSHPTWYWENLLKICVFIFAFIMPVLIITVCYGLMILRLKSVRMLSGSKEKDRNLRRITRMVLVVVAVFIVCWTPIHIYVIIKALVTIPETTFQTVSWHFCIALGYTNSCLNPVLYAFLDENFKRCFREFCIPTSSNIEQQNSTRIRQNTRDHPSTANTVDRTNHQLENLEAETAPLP
Source text: A cell line co-transfected with MOR and Gα16 is established, such that activation of receptors can activate Ga16 protein, which in turn activates phospholipase C (PLC) to generate IP3 and DAG. IP3 can bind to IP3 receptors on endoplasmic reticulum and mitochondria in the cells, thereby triggering the release of intracellular calcium. Therefore, detection of intracellular calcium levels can be employed as a measure for detecting the activation state of MOR. Fluo-4/AM is a calcium fluorescent probe indicator for measuring calcium ions. It is a non-polar liposoluble compound, which, upon entering a cell and by the action of lipolytic enzymes, releases Fluo-4 while the AM moiety is dissociated. As a polar molecule, Fluo-4 cannot easily pass through the lipid bilayer membrane, thus it is retained in the cells for a long duration. Eventually, the level of activation of Gα proteins is reflected by measuring the intensity of fluorescence that is excited.
1. inoculating CHO cells stably expressing MOR/Gα16 in a 96-well plate and incubating the same overnight;
2. removing the medium from the wells inoculated with cells, adding freshly prepared dye (40 μl/well), and incubating for 40 minutes in a thermostatic incubator of 37° C.;
3. diluting the test substances with a calcium buffer and homogenizing; […]

For the compound `C=CCN1CC[C@]23c4c5ccc(O)c4O[C@H]2[C@@H](OCCOCCOCCOCCO[C@H]2CC[C@@]4(O)[C@H]6Cc7ccc(O)c8c7[C@@]4(CCN6CC=C)[C@H]2O8)CC[C@@]3(O)[C@H]1C5` [(α,α)-NAL24, double-end substituted tetraethylene glycol-naloxone], the IC50 amounted to 7.16 nM.

As to `COC(=O)/C=C/C(=O)N[C@@H]1CC[C@@]2(O)[C@H]3Cc4ccc(O)c5c4[C@@]2(CCN3CC2CC2)[C@H]1O5` [Beta-FNA], the half-maximal inhibitory concentration (IC50) came to 2.62 nM.

(Values after US8962647B1, “Conjugate of polyethylene gylcol and naloxone and pharmaceutical composition and use thereof” (Jenkem Technology Co., Ltd. (Tianjin), priority 2012, dated 2015).)
